pIC50, pKd: −log10 of the molar value. ≈ marks a conversion by molar mass, not a printed value.
Key:
[1] = system: S. aureus ATCC 13709; assay: MIC, S. aureus ATCC 13709; format: cell-based; settings: for MIC: Staphylococcus aureus
Procedure: (§1) The MIC assays are carried out in 150 μL volume in duplicate in 96-well clear flat-bottom plates. The bacterial suspension from an overnight culture growth in appropriate medium is added to a solution of test compound in 4% DMSO in water. Final bacterial inoculum is approximately 10^5-10^6 CFU/well. […] Both ampicillin and tetracycline are used as antibiotic-positive controls in each screening assay for S. pyogenes, E. coli imp-, E. coli, S. aureus, E. faecalis, K. pneumoniae and P. vulgaris. Ciprofloxacin is used as an antibiotic positive control in each screening assay for P. aeruginosa.
(§2) The following compounds were prepared using methods illustrated in the previous examples. The compounds were also examined in standard bacterial assays against E. Coli, S. Aureus, P. aurginosa, K. pneumoniae, P. vulgaris, and A. baumannii to determine activities. Each of the bacterial cultures that are available from ATCC (www.atcc.org) is identified by its ATCC number. A. baumannii is gentamicin sensitive Acinetobacter baumannii #2 from Walter Reed.

[2] = system: E. coli ATCC 25922; assay: MIC, E. coli ATCC 25922; format: cell-based; settings: for MIC: Escherichia coli
Procedure: as §1, §2

[3] = system: P. vulgaris ATCC 8427; assay: MIC, P. vulgaris ATCC 8427; format: cell-based; settings: for MIC: Proteus vulgaris
Procedure: as §1, §2

[4] = system: P. aurginosa ATCC 25416; assay: MIC, P. aurginosa ATCC 25416; format: cell-based
Procedure: as §1, §2

[5] = system: P. aurginosa ATCC 29248; assay: MIC, P. aurginosa ATCC 29248; format: cell-based
Procedure: as §1, §2

[6] = system: gentamicin sensitive Acinetobacter baumannii #2 from Walter Reed; assay: MIC, A. baumannii WReed 2; format: cell-based; settings: for MIC: Acinetobacter baumannii
Procedure: as §1, §2

[7] = system: K. pneumoniae ATCC 10031; assay: MIC, K. pneumoniae ATCC 10031; format: cell-based; settings: for MIC: Klebsiella pneumoniae
Procedure: as §1, §2

[8] = target: 18S ribosomal subunit RNA target; assay: Mass spectrometry based binding assay (FTICR), 18S; settings: Example 108
Procedure: (§3) In a typical experiment, 10 μL of an aqueous solution containing 100 mM ammonium acetate buffer, 2.5 or 5 μM of each RNA, and 33% isopropyl alcohol (to aid ion desolvation) was prepared with different concentrations of each ligand or ligand mixture Samples were introduced into the electrospray ionization source (negative ionization mode) at 1 μL/min and ions were stored for 1 sec in an RF-only hexapole following desolvation. The abundances were integrated from the respective ions for free RNA and the ligand-RNA complex. The primary (1:1 RNA:ligand) and secondary (1:2 complex, if observed). […] The peak ratios were measured at each concentration, then a plot of complex/free RNA versus concentration of ligand added was fitted to a second (or higher) order binding polynomial to determine the KD.

[9] = system: S. Aureus; assay: MIC, S. Aureus; format: cell-based
Procedure, shortened: (§4)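 Broth microdilution in duplicate, 150 μL: overnight-culture bacteria were added to compound in 4% DMSO in water. Final inoculum was about 10^5–10^6 CFU/well.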

[10] = target: 16S ribosomal subunit RNA target; assay: Mass spectrometry based binding assay (FTICR), 16S; settings: Example 108
Procedure: as §3, with “[…],” for “2.5 or 5 μM of each RNA,”

[11] = system: E. Coli; assay: MIC, E. Coli; format: cell-based
Procedure, shortened: as §4

[12] = system: E. coli S30 bacterial extract (pBestLuc firefly luciferase reporter); assay: Coupled bacterial transcription/translation assay; format: biochemical; settings: Example 108; read-out: Trans/Trans IC50
Procedure: The DNA template, pBestLuc™ (Promega), is a plasmid containing a reporter gene for firefly luciferase fused to a strong tac promoter and ribosome binding site. Messenger RNA from 1 μg pBestLuc is transcribed and translated in E. coli S30 bacterial extract in the presence or absence of test compound. Compounds are tested in a black 96 well microtiter plate with an assay volume of 35 μL. […] The transcription/translation reaction is incubated for 35 minutes at 37° C. followed by detection of functional luciferase with the addition of 30 μL LucLite™ (Packard). Light output is quantitated on a Packard TopCount.

[13] = system: Staphylococcus aureus (Smith Strain ATCC 13709); assay: Staphylococcus aureus mouse protection assay; format: in vivo, mice; settings: Staph Conc. 10^6, 10% Mucin, the 13th table
Procedure: Two of the novel aminoglycoside compounds of the invention were examined for their anitbacterial activity against staphylococcus aureus. Mice were fed with autoclaved commercial food pellets and sterile water ad libitum. Animals were inoculated intraperitoneally with 0.5 mL/mouse of the indicated concentration of S. aureus (ATCC 13709) containing 10% mucin. There were 10 mice in each treatment group and compounds were administered subcutaneously one and 3 hour after infection. Compounds 15a (R4═R5═CH3) and 15j (R4═H, R5═(CH2)2C6H5)) were used at 75 mg/kg, 37.5 mg/kg, 18.8 mg/kg, 9.4 mg/kg, 4.7 mg/kg, 2.3 mg/kg, 1.17 mg/kg and 0.5 mg/kg. Amakacin, paromomycin and neomycin were used as the positive controls at concentrations of 2 mg/kg, 1 mg/kg and 0.5 mg/kg.
Test compound was administered as an aqueous buffer solution (phosphate buffered saline (PBS), pH=7.4).

In the case of `NCC1OC(OC2C(CO)OC(OC3C(O)C(N)CC(N)C3OC3OC(CO)C(O)C(O)C3N)C2OCCN(CCCc2ccccc2)CCc2ccccc2)C(N)C(O)C1O` (stereo not shown) [Compound 9ag], the “MIC S. aureus ATCC 13709” value ([1]; Example 110) was 0.6 to 1.2 µM, the “MIC E. coli ATCC 25922” value ([2]; Example 110) was 10 to 20 µM and the “MIC P. vulgaris ATCC 8427” value ([3]; Example 110) was 10 to 20 µM. For the same compound, the “MIC P. aurginosa ATCC 25416” value ([4]; Example 110) was 10 to 20 µM, the “MIC P. aurginosa ATCC 29248” value ([5]; Example 110) was >40 µM and the “MIC A. baumannii WReed 2” value ([6]; Example 110) was 10 to 20 µM. The “MIC K. pneumoniae ATCC 10031” value ([7]; Example 110) was 2.5 to 5 µM.

For `CN(C)CC1OC(OC2C(N)CC(N)C(O)C2OC2OC(CO)C(OC3OC(CN)C(O)C(O)C3N)C2O)C(N)C(O)C1O` (stereo not shown) [Compound 15a], the pKd [8] was 6.15, the “MIC S. Aureus” value ([9]; Example 108) was 2 to 3 µM and the pKd [10] was 6.22. For the same compound, the “MIC E. Coli.” value ([11]; Example 108) was 3 to 6 µM, the pIC50 [12] was 6.52 and the “# Dead mice/Total mice in group” value ([13]; 0.5 mg/kg subcutaneously) was 8/10. The “# Dead mice/Total mice in group” value ([13]; 1 mg/kg subcutaneously) was 7/10, the “# Dead mice/Total mice in group” value ([13]; 2 mg/kg subcutaneously) was 7/10 and the “# Dead mice/Total mice in group” value ([13]; 4.5 mg/kg subcutaneously) was 1/10. For the same compound, the “# Dead mice/Total mice in group” value ([13]; 9 mg/kg subcutaneously) was 0/10, the “# Dead mice/Total mice in group” value ([13]; 18 mg/kg subcutaneously) was 0/10 and the “# Dead mice/Total mice in group” value ([13]; 37 mg/kg subcutaneously) was 0/10. For the same compound, the “# Dead mice/Total mice in group” value ([13]; 75 mg/kg subcutaneously one and 3 hour after infection, intraperitoneal) was 0/10.

`COc1ccc(CCNCCOC2C(OC3C(O)C(N)CC(N)C3OC3OC(CO)C(O)C(O)C3N)OC(CO)C2OC2OC(CN)C(O)C(O)C2N)cc1` (stereo not shown) [Compound 9aj] was tested, and the “MIC S. aureus ATCC 13709” value ([1]; Example 110) was <0.6 µM, the “MIC E. coli ATCC 25922” value ([2]; Example 110) was 5 to 10 µM and the “MIC P. vulgaris ATCC 8427” value ([3]; Example 110) was 5 to 10 µM. The “MIC P. aurginosa ATCC 25416” value ([4]; Example 110) was >40 µM, the “MIC P. aurginosa ATCC 29248” value ([5]; Example 110) was >40 µM and the “MIC A. baumannii WReed 2” value ([6]; Example 110) was 2.5-5^ uM. For the same compound, the “MIC K. pneumoniae ATCC 10031” value ([7]; Example 110) was 1.3 to 2.5 µM.

For `NCC1OC(OC2C(CO)OC(OC3C(O)C(N)CC(N)C3OC3OC(CNCCc4ccc(F)cc4)C(O)C(O)C3N)C2O)C(N)C(O)C1O` (stereo not shown) [Compound 15o], the “MIC S. aureus ATCC 13709” value ([1]; Example 111) was 0.3 to 0.6 µM, the “MIC S. Aureus” value ([9]; Example 109) was 0.2 to 0.3 µM and the “MIC E. coli ATCC 25922” value ([2]; Example 111) was 1.3 to 2.5 µM. For the same compound, the “MIC E. Coli.” value ([11]; Example 109) was 0.6 to 1.2 µM, the “MIC P. vulgaris ATCC 8427” value ([3]; Example 111) was >40 µM and the “MIC P. aurginosa ATCC 25416” value ([4]; Example 111) was >40 µM. For the same compound, the “MIC P. aurginosa ATCC 29248” value ([5]; Example 111) was >40 µM, the “MIC A. baumannii WReed 2” value ([6]; Example 111) was 10 to 20 µM and the “MIC K. pneumoniae ATCC 10031” value ([7]; Example 111) was 0.6 to 1.3 µM.

In the case of `NCC[C@H](O)C(=O)N[C@@H]1C[C@H](N)[C@@H](O[C@H]2O[C@H](CO)[C@@H](O)[C@H](O)[C@H]2N)[C@H](O[C@@H]2O[C@H](CO)[C@@H](O[C@H]3O[C@@H](CN)[C@@H](O)[C@H](O)[C@H]3N)[C@H]2O)[C@H]1O` [Compound 67, N-1-haba paromomycin], the MIC ([1]; ATCC13709, Example 110) was 20 to 40 µM (≈ 14.3 to 28.7 µg/mL), the MIC ([1]; ATCC13709, Example 111) was 1.3 to 2.5 µM (≈ 0.932 to 1.79 µg/mL) and the MIC ([9]; Staphylococcus aureus, Example 107) was 1.3 to 2.5 µM (≈ 0.932 to 1.79 µg/mL). For the same compound, the MIC ([2]; ATCC25922, Example 110) was 2.5 to 5 µM (≈ 1.79 to 3.58 µg/mL), the MIC ([2]; ATCC25922, Example 111) was 5 to 10 µM (≈ 3.58 to 7.17 µg/mL) and the MIC ([11]; Escherichia coli, Example 107) was 5 to 10 µM (≈ 3.58 to 7.17 µg/mL). It also gave an MIC ([3]; ATCC8427, Example 110) of 5 to 10 µM (≈ 3.58 to 7.17 µg/mL), an MIC ([3]; ATCC8427, Example 111) of 2.5 to 5 µM (≈ 1.79 to 3.58 µg/mL) and an MIC ([4]; Example 110) of 1.3 to 2.5 µM (≈ 0.932 to 1.79 µg/mL). The MIC ([4]; Example 111) was 10 to 20 µM (≈ 7.17 to 14.3 µg/mL), the MIC ([5]; Example 110) was 5 to 10 µM (≈ 3.58 to 7.17 µg/mL) and the MIC ([5]; Example 111) was 5 to 10 µM (≈ 3.58 to 7.17 µg/mL). The MIC ([6]; Example 110) was 2.5 to 5 µM (≈ 1.79 to 3.58 µg/mL), the MIC ([6]; Example 111) was 5 to 10 µM (≈ 3.58 to 7.17 µg/mL) and the MIC ([7]; ATCC10031, Example 110) was 0.6 to 1.3 µM (≈ 0.43 to 0.932 µg/mL). For the same compound, the MIC ([7]; ATCC10031, Example 111) was 0.6 to 1.3 µM (≈ 0.43 to 0.932 µg/mL).
